Measured values as given in patent US7671077B2, “Neuroprotective small organic molecules, compositions and uses related thereto” (priority 2004, dated 2010).

Tested on: midbrain dopaminergic neurons
Experiment: Dopamine (DA) uptake assay in primary midbrain cultures
Format: cell-based, rat
Conditions: for activity at 0.6 µM: compound concentration 0.6 μM; for activity at 5 µM: compound concentration 5 μM; for activity at 20 µM: compound concentration 20 μM; for activity at 10 µM: compound concentration 10 μM; for activity at 0.7 µM: compound concentration 0.7 μM
Experimental: Primary midbrain cultures were prepared from rat embryo ventral mesencephalon as described previously by Lin et al (1994). In brief, rostral mesencephalic tegmentum of embryonic day 16 rat embryos was collected in DMEM/F12 (Hyclone SH30023.01) containing 2 mM glutamine on ice, The tissue was treated with 0.1% trypsin in Hanks' balanced salt solution (HBSS, Gibco 14175-095) for 15 min at 37° C. and dissociated mechanically by mild trituration with a fire-polished glass pipet in growth medium plus 2% heat-inactivated fetal bovine serum (FBS). The growth medium consisted of equal volumes of Dulbecco's minimal essential medium DMEM (Gibco 12100-046) and HAM's F12 nutrient mixture (Gibco 21700-075) supplemented with 33 mM glucose, 13 mM sodium bicarbonate, 5 mM HEPES, 2 mM glutamine, 25 μg/ml insulin, 100 μg/ml transferrin, 60 μM putrescine, 20 nM progesterone, 30 nM sodium selenite, 5 U/ml penicillin G and 5 μg/ml streptomycin. 24-well tissue culture plate was coated by adding 15 μg/ml poly-1-ornithine hydrobromide solution at 0.5 ml/well, incubated at room temperature for 1 hr. The coating solution was removed and the well washed 3 times with distilled water and one wash with HBSS. The dissociated cells were plated onto polyornithine-coated wells at 250,000-350,000 trypan blue-excluding viable cells per well in 500 μl of above medium containing 1% FBS. After 3 h when most of the cells had adhered to the bottom of the well, the medium was replaced with 500 μl of fresh medium without FBS. A serial dilution of the sample to be assayed for trophic activity was added to each well in duplicate at the time of medium change or within 24 h thereafter. Unless otherwise stated, cultures were incubated at 37° C. without any further medium change up to 7 days. Primary hindbrain cultures were prepared as described for the midbrain cultures except that the rostral raphe region (instead of the rostral mesencephalon) was dissected and trypsinized for 20 (instead of 15) min.
[^3H]DA uptake was measured in cultures at day 7, and all the solutions were maintained at 37° C. The growth medium was removed, and the cultures were rinsed twice with 0.25 ml of uptake buffer, which consists of HBSS (Gibco 11201-092) supplemented with 28 mM glucose, 15 mM HEPES, 1 mM ascorbic acid (an antioxidant), and […] pargyline (a monoamine oxidase inhibitor). The cultures were then incubated with 0.25 ml of fresh uptake buffer containing 50 nM [^3H]DA (NEN/DuPont) for 20 min at 37° C. [^3H]DA uptake was stopped by removing the incubation mixture, and cells were then washed twice with 0.5 ml of the uptake buffer at room temperature. To release [^3H]DA from the cells, the cultures were lysed with 0.2 ml of 0.1 N NaOH for 1 h at room temperature, the lysate was then added to 1 ml of Microscint-20 (Packard 6013621), and counted for radioactivity in a microplate scintillation counter (Packard TopCount, NXT). Background values were obtained by adding to the uptake buffer 0.5 mM GBR-12909, a specific inhibitor of the high-affinity uptake pump of the dopaminergic neurons, and were usually <5% of the ^3H uptake in untreated control cultures. Forskolin (Fk, 25 μM) was employed as a positive control.

[1] = Rattus norvegicus, Neuron, compound concentration 1.25 μM, midbrain culture, read-out: DA uptake % of control
[2] = Rattus norvegicus, Neuron, midbrain culture, read-out: DA uptake % of control
[3] = Rattus norvegicus, Neuron, compound concentration 2.5 μM, midbrain culture, read-out: DA uptake % of control

For `O=C(/C=C/c1ccc(Cl)cc1)Nc1ccc(S(=O)(=O)Nc2ncccn2)cc1` [A′], the activity at 1.25 µM [1] was 140%.
`O=C(/C=C/c1ccc(C(F)(F)F)cc1)Nc1ccc(S(=O)(=O)Nc2nccs2)cc1` [A′′′] was tested, and the activity at 0.6 µM [2] was 195%.
`O=C(/C=C/c1ccccc1F)Nc1ccc(S(=O)(=O)Nc2nccs2)cc1` [A′′′′] gave an activity at 2.5 µM [3] of 170%.
In the case of `O=C(/C=C/c1c(Cl)cccc1Cl)Nc1ccc(S(=O)(=O)Nc2ccccn2)cc1` [A″], the activity at 1.25 µM [1] is reported as 340%.
In the case of `O=C(/C=C/c1ccccc1)Nc1ccc(S(=O)(=O)Nc2nccs2)cc1` [B], the activity at 2.5 µM [3] is reported as 170%.
`CCc1nnc(NS(=O)(=O)c2ccc(NC(=O)c3ccc(Cl)cc3Cl)cc2)s1` [B′] showed an activity at 5 µM [2] of 150%.
`COc1cc(Br)c(/C=C/C(=O)Nc2ccc(S(=O)(=O)Nc3nccs3)cc2)cc1OC` [B′′′] was tested, and the activity at 1.25 µM [1] was 260%.
Compound `Cc1cccc(/C=C/C(=O)Nc2ccc(S(=O)(=O)Nc3ccccn3)cc2)c1` [B′′′′] has an activity at 5 µM [2] of 240%.
`O=C(/C=C/c1cccc(Cl)c1)Nc1ccc(S(=O)(=O)Nc2nc[nH]n2)cc1` [B′′′′′] gave an activity at 1.25 µM [1] of 230%.
In the case of `Cc1cc(NS(=O)(=O)c2ccc(NC(=O)/C=C/c3ccccc3Cl)cc2)no1` [B″], the activity at 5 µM [2] is reported as 180%.
For `O=C(COc1ccc(Cl)cc1)Nc1ccc(S(=O)(=O)Nc2nccs2)cc1` [Compound D], the activity at 20 µM [2] was 210%.
`CCc1nnc(NS(=O)(=O)c2ccc(NC(=O)c3ccccc3F)cc2)s1` [Compound Z] was tested, and the activity at 10 µM [2] was 150%.
With `Cc1ccc(/C=C/C(=O)Nc2ccc(S(=O)(=O)Nc3cccs3)cc2)c(C)c1` [Compound Z′] the “stimulation maximum of DA uptake compared to compound A” value (FIG. 36) was “higher stimulation maximum”, the activity at 1.25 µM [1] was 365% and the EC50 (Rattus norvegicus, Neuron, midbrain culture, FIG. 36, read-out: half-maximal effective concentration (EC50) for DA uptake stimulation) was ~200 nM.
For `O=C(/C=C/c1ccccc1Cl)Nc1ccc(S(=O)(=O)Nc2ncccn2)cc1` [C′], the activity at 2.5 µM [3] was 140%.
With `O=C(/C=C/c1cccc(C(F)(F)F)c1Cl)Nc1ccc(S(=O)(=O)Nc2nccs2)cc1` [C′′′] the activity at 0.6 µM [2] was 180%.
`Cc1ccc(/C=C/C(=O)Nc2ccc(S(=O)(=O)Nc3ccccn3)cc2)cc1` [C′′′′] was tested, and the activity at 2.5 µM [3] was 160%.
For `O=C(/C=C/c1c(Cl)cccc1Cl)Nc1ccc(S(=O)(=O)Nc2nccs2)cc1` [C′′′′′], the “DA uptake % of control” value (compound concentration 1.25 μM, midbrain culture, 1.25 µM) was 310% of control.
Work on `O=C(Nc1ccc(S(=O)(=O)Nc2cccs2)cc1)c1ccc2ccccc2c1` [C″] yielded an activity at 2.5 µM [3] of 200%.
Compound `O=C(Nc1ccc(S(=O)(=O)Nc2nccs2)cc1)c1sc2ccccc2c1Cl` [D′] has an activity at 0.6 µM [2] of 170%.
`Cc1cc(C)cc(/C=C/C(=O)Nc2ccc(S(=O)(=O)Nc3nccs3)cc2)c1` [D′′′] gave an activity at 1.25 µM [1] of 240%.
In the case of `Cn1c(C(=O)Nc2ccc(S(=O)(=O)Nc3nccs3)cc2)cc2ccccc21` [D′′′′], the activity at 2.5 µM [3] is reported as 190%.
In the case of `Cc1ccccc1/C=C/C(=O)Nc1ccc(S(=O)(=O)Nc2nc[nH]n2)cc1` [D′′′′′], the activity at 2.5 µM [3] is reported as 260%.
For `O=C(/C=C/c1ccccc1Br)Nc1ccc(S(=O)(=O)Nc2nc[nH]n2)cc1` [D″], the activity at 1.25 µM [1] was 310%.
With `Cc1ccc(/C=C/C(=O)Nc2ccc(S(=O)(=O)Nc3nccs3)cc2)cc1` [E] the activity at 2.5 µM [3] was 260%.
Compound `O=C(/C=C/c1cccc([N+](=O)[O-])c1)Nc1ccc(S(=O)(=O)Nc2nccs2)cc1` [E′] has an activity at 1.2 µM (Rattus norvegicus, Neuron, compound concentration 1.2 μM, midbrain culture, read-out: DA uptake % of control) of 210%.
In the case of `CN(C)c1ccc(C(=O)Nc2ccc(S(=O)(=O)Nc3nccs3)cc2)cc1` [E′′′], the activity at 2.5 µM [3] is reported as 130%.
`O=C(Nc1ccc(S(=O)(=O)Nc2nccs2)cc1)c1cc2ccccc2o1` [E′′′′] showed an activity at 2.5 µM [3] of 260%.
With `Cc1cccc(/C=C/C(=O)Nc2ccc(S(=O)(=O)Nc3nc[nH]n3)cc2)c1` [E″] the activity at 1.25 µM [1] was 290%.
With `O=C(Nc1ccc(S(=O)(=O)Nc2nccs2)cc1)c1ccc(F)c(F)c1` [F] the activity at 20 µM [2] was 180%.
For `O=C(Nc1ccc(S(=O)(=O)Nc2nccs2)cc1)c1sc2cc(Cl)ccc2c1Cl` [F′], the activity at 0.3 µM (Rattus norvegicus, Neuron, compound concentration 0.3 μM, midbrain culture, read-out: DA uptake % of control) was 180%.
`COc1cccc(C(=O)Nc2ccc(S(=O)(=O)Nc3nccs3)cc2)c1` [F′′′] showed an activity at 10 µM [2] of 140%.
`O=C(Nc1ccc(S(=O)(=O)Nc2nccs2)cc1)c1cc2ccccc2oc1=O` [F′′′′] was tested, and the activity at 0.25 µM (Rattus norvegicus, Neuron, compound concentration 0.25 μM, midbrain culture, read-out: DA uptake % of control) was 160%.
Compound `O=C(/C=C/c1ccccc1Cl)Nc1ccc(S(=O)(=O)Nc2ccccn2)cc1` [F″] has an activity at 2.5 µM [3] of 180%.
`O=C(/C=C/c1ccco1)Nc1ccc(S(=O)(=O)Nc2ccco2)cc1` [G] was tested, and the activity at 40 µM (Rattus norvegicus, Neuron, compound concentration 40 μM, midbrain culture, read-out: DA uptake % of control) was 190%.
`Cc1cc(NS(=O)(=O)c2ccc(NC(=O)/C=C/c3ccccc3)cc2)no1` [G′] was tested, and the activity at 20 µM [2] was 140%.
`O=C(/C=C/c1ccccc1)Nc1ccc(S(=O)(=O)Nc2ccccn2)cc1` [G′′′] showed an activity at 20 µM [2] of 180%.
`Cc1cccc(/C=C/C(=O)Nc2ccc(S(=O)(=O)Nc3nccs3)cc2)c1` [G′′′′] showed an activity at 2.5 µM [3] of 220%.
With `O=C(/C=C/c1ccccc1C(F)(F)F)Nc1ccc(S(=O)(=O)Nc2nc[nH]n2)cc1` [G″] the activity at 1.25 µM [1] was 350%.
`CC(C)(C)c1ccc(C(=O)Nc2ccc(S(=O)(=O)Nc3nccs3)cc2)cc1` [H] showed an activity at 2.5 µM [3] of 150%.
With `COc1ccc(C(=O)Nc2ccc([S+]([O-])Nc3nccs3)cc2)cc1` (stereo not shown) [H′] the activity at 10 µM [2] was 160%.
With `COc1ccc(/C=C/C(=O)Nc2ccc(S(=O)(=O)Nc3ccccn3)cc2)cc1` [H′′′] the activity at 20 µM [2] was 180%.
Work on `O=C(/C=C/c1cccc(C(F)(F)F)c1)Nc1ccc(S(=O)(=O)Nc2nccs2)cc1` [H′′′′] yielded an activity at 1.25 µM [1] of 240%.
Compound `O=C(/C=C/c1c(Cl)cccc1Cl)Nc1ccc(S(=O)(=O)Nc2nc[nH]n2)cc1` [H″] has an activity at 1.25 µM [1] of 260%.
In the case of `Cc1cc(NS(=O)(=O)c2ccc(NC(=O)/C=C/c3c(Cl)cccc3Cl)cc2)no1` [I], the activity at 0.7 µM [2] is reported as 150%.
Work on `O=C(/C=C/c1ccccc1Cl)Nc1ccc(S(=O)(=O)N2CCOCC2)cc1` [I′] yielded an activity at 2.5 µM [3] of 150%.
`COc1ccc(/C=C/C(=O)Nc2ccc(S(=O)(=O)Nc3nccs3)cc2)cc1` [I′′′] showed an activity at 5 µM [2] of 140%.
`O=C(/C=C/c1cccc(F)c1)Nc1ccc(S(=O)(=O)Nc2nccs2)cc1` [I′′′′] showed an activity at 2.5 µM [3] of 200%.
For `COc1ccc(/C=C/C(=O)Nc2ccc(S(=O)(=O)Nc3nccs3)cc2)c(Cl)c1OC` [I″], the activity at 1.25 µM [1] was 245%.
Compound `COc1cc(OC)cc(C(=O)Nc2ccc(S(=O)(=O)Nc3nccs3)cc2)c1` [J] has an activity at 20 µM [2] of 150%.
In the case of `Cc1noc(NS(=O)(=O)c2ccc(NC(=O)/C=C/c3ccc(Cl)cc3)cc2)c1C` [J′], the activity at 5 µM [2] is reported as 180%.
With `COc1cccc(/C=C/C(=O)Nc2ccc(S(=O)(=O)Nc3nccs3)cc2)c1` [J′′′] the activity at 2.5 µM [3] was 140%.
Work on `O=C(/C=C/c1ccccc1Br)Nc1ccc(S(=O)(=O)Nc2nccs2)cc1` [J′′′′] yielded a DA uptake % of control (compound concentration 2.5 μM, midbrain culture) of 210%.
`Cc1ccc(C)c(/C=C/C(=O)Nc2ccc(S(=O)(=O)Nc3nccs3)cc2)c1` [J″] showed an activity at 1.25 µM [1] of 320%.
Compound `O=C(/C=C/c1cccc(Cl)c1)Nc1ccc(S(=O)(=O)Nc2cnc3ccccc3n2)cc1` [K] has an activity at 0.7 µM [2] of 190%.
`O=C(/C=C/c1ccccc1)Nc1ccc(S(=O)(=O)N2CCCCC2)cc1` [K′] gave an activity at 0.6 µM [2] of 125% and an activity at 2.5 µM [3] of 320%.
With `COc1ccccc1/C=C/C(=O)Nc1ccc(S(=O)(=O)Nc2nccs2)cc1` [K′′′] the activity at 2.5 µM [3] was 170%.
Work on `O=C(Nc1ccc(S(=O)(=O)Nc2nccs2)cc1)c1cc2ccccc2[nH]1` [K′′′′] yielded an activity at 2.5 µM [3] of 150%.
`CCOc1ccc(C(=O)Nc2ccc(S(=O)(=O)Nc3nccs3)cc2)cc1` [L] was tested, and the activity at 10 µM [2] was 160%.
Work on `Cc1noc(NS(=O)(=O)c2ccc(NC(=O)/C=C/c3ccccc3Cl)cc2)c1C` [L′] yielded an activity at 5 µM [2] of 140%.
Work on `O=C(/C=C/c1ccc(O)cc1)Nc1ccc(S(=O)(=O)Nc2ccccn2)cc1` [L′′′] yielded an activity at 1.25 µM [1] of 130%.
`COc1ccccc1/C=C\C(=O)Nc1ccc(S(=O)(=O)Nc2nccs2)cc1` [L′′′′] showed an activity at 2.5 µM [3] of 200%.
